Structures are written as SMILES.

Test [1] has as its target 5-hydroxytryptamine receptor 1B (Rattus norvegicus, UniProt P28564). In words: biochemical.
The target of test [2] is T1, Serotonin 2 (5-HT2) receptor (Rattus norvegicus, UniProt P30994+P08909+P14842).
The target in test [3] is T1, Serotonin 2 (5-HT2) receptor. The experiment in a line: Ability to displace 0.75 nM [3H]ketanserin in 5-hydroxytryptamine 2 receptor from rat frontal cortex homogenate. It is filed as tissue-based.

Sequence of 5-hydroxytryptamine receptor 1B (P28564 whole entry): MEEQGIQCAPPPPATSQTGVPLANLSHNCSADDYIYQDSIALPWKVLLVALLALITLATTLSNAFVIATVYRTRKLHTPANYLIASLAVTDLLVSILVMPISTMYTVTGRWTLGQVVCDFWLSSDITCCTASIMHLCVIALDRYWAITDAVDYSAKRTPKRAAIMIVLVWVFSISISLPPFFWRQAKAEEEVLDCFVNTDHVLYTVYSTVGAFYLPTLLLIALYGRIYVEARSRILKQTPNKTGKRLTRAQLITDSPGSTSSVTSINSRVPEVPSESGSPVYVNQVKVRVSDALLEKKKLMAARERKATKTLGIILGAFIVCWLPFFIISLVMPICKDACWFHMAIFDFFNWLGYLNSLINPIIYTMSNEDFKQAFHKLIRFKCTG

The molecule `COc1cccc2[nH]cc(C[C@@H](C)N)c12` had a Ki in test [1] of 776 nM. Besides, in test [2], the “Log Ki” value is listed as -5.84.

Regarding `COc1ccc2c(C[C@@H](C)N)c[nH]c2c1`, the Ki in test [1] was 2140 nM; in test [3], more than 10000 nM.

As for `C[C@H](N)Cc1c[nH]c2cccc(O)c12`, the affinity in test [1], expressed as Ki, was 4070 nM. In test [2], the “Log Ki” value is -5.21.

Molecule `COc1cccc2[nH]cc(C[C@H](C)N)c12` gave a Ki in test [1] of 2690 nM. For the same molecule, in test [2], the “Log Ki” value is reported as -6.02.

In test [1], `COc1ccc2[nH]cc(C[C@@H](C)N)c2c1` gave a Ki of 380 nM. For the same molecule, the “Log Ki” value in test [2] is reported as -5.89.

As for `COc1ccc2c(C[C@H](C)N)c[nH]c2c1`, the Ki in test [1] is 7240 nM; in test [3], more than 10000 nM.

For `C[C@@H](N)Cc1c[nH]c2cccc(O)c12`, the Ki in test [1] is 1550 nM. For the same molecule, the “Log Ki” value in test [2] is -5.46.

Molecule `COc1ccc2[nH]cc(C[C@H](C)N)c2c1` gave a Ki in test [1] of 417 nM. Moreover, in test [2], the “Log Ki” value was -6.15.

By Ki is commonly meant a measure of affinity in units of concentration, obtained from inhibition or displacement.

Values taken from ChEMBL document CHEMBL1124263 (J Med Chem, 1988).
